Read-outs that look alike come from different tables or passages of the source.
Experiments:
[1] = test system: Human nasal epithelial cells (HNEpCs); details: MTT, n = 8
Method: Human nasal epithelial cells (HNEpCs) purchased from the American Type Culture Collection (Rockville, MD, USA) were used as an in vitro model of the nasal mucosa. The cells were cultured in culture medium (Eagle’s minimum essential medium (MEM) supplemented with 10% (v/v) fetal bovine serum (FBS) and 1% penicillin/streptomycin solution) and maintained in 5% CO2/95% humidified air at 37 °C.
HNEpCs were seeded at a density of 5 × 10^3 cells/well in 96-well plates (Corning, NY, USA) and cultured for 24 h before the experiment. […] The culture medium was used as a negative control, and 20% dimethyl sulfoxide (DMSO) was used as a positive control. Following 6 h of incubation, the test solutions were removed, and the cytotoxicity was determined using a commercial MTT kit. The cells were washed, and then, MTT reagent in culture medium was added for a further 3 h incubation at 37 °C. The remaining media was removed, and 200 μL DMSO was added to each well to dissolve the formazan crystals. The resulting absorbance was read at 490 nm.

HNEpCs = experiment: Cellular internalization of FITC-PTH; format: cell-based, human
Method: A 20 μg/mL FITC-PTH solution without any permeation enhancer was used as a negative control, and a 20 μg/mL FITC-PTH solution supplemented with 0.1% Triton X-100 was used as a positive control. The test solutions were added to the corresponding wells, and the amount of cellularly internalized PTH was measured after 30 min following sample applications. […] Finally, the cells were lysed with cell lysis buffer. The resulting lysis products were collected for fluorescence measurement and protein content measurement. The fluorescence measurement was carried out using a Varioskan LUX multimode microplate reader with ex/em 485/518 nm, and the protein content was measured by using a commercial BCA protein assay kit (Solarbio Life Sciences). The amount of internalized PTH(1-34) in each well was normalized to the protein content.

HNEpC layers = experiment: Permeability of FITC-PTH across HNEpC layers (Transwell); format: in vitro ADME, human; details: HNEpC monolayer, apical to basolateral, 10 μg/mL FITC-PTH, all tested concentrations (0.015%, 0.010% and 0.005%), fluorescence
Method: […] were seeded at a density of 10 × 10^4 cells/well on Transwell® supports with a pore size of 0.4 μm. TEER (Ω·cm^2) was determined using a Millicell electrical resistance system (ERS) voltohmmeter (Millipore, Bedford, MA, USA). Cell monolayers with TEER values exceeding 500 Ω·cm^2 were used for further experiments. […] Prior to the permeability experiment, the cell monolayers were equilibrated with 1.0 mL Hank's balanced salt solution (HBSS) in the basolateral compartment and 0.4 mL culture medium in the apical chamber for 30 min. Subsequently, the apical culture medium was withdrawn, and 0.2 mL solution of a test solution was applied. Thereafter, 200 μL receiver samples from the basolateral compartment were taken every 30 min for 4 h, and then, 200 μL fresh HBSS was added to the basolateral compartment.

HNEpC monolayers = experiment: Effect of permeation enhancers on TEER of HNEpC monolayers; format: cell-based, human; details: HNEpC monolayer, apical application, all solutions (0.005%, 0.010%, 0.015%), n = 8
Method: HNEpCs were seeded at a density of 10 × 10^4 cells/well on Transwell® supports with a pore size of 0.4 μm. TEER (Ω·cm^2) was determined using a Millicell electrical resistance system (ERS) voltohmmeter (Millipore, Bedford, MA, USA). Cell monolayers with TEER values exceeding 500 Ω·cm^2 were used for further experiments. […] Prior to the permeability experiment, the cell monolayers were equilibrated with 1.0 mL Hank’s balanced salt solution (HBSS) in the basolateral compartment and 0.4 mL culture medium in the apical chamber for 30 min. Subsequently, the apical culture medium was withdrawn, and 0.2 mL solution of a test solution was applied. Thereafter, 200 μL receiver samples from the basolateral compartment were taken every 30 min for 4 h, and then, 200 μL fresh HBSS was added to the basolateral compartment. Finally, the FITC-PTH concentration in the collected samples was analyzed using a Varioskan LUX multimode microplate reader with ex/em 485/518 nm.
HNEpC monolayers were cultured as described above. The baseline TEER was measured before the experiment for 60 min. […] A chitosan solution at 0.003% w/v in culture medium was used as a positive control. The results for each experiment are presented as percentages relative to their respective baseline TEER.

nasal septum mucosae [2] = experiment: Nasal mucosal toxicity: mucosa morphology (SEM) after intranasal dosing; details: SD rats, citric acid solutions (0.2-0.6%), 15 consecutive days
Method: (§1) Mucosa morphology was considered a direct indicator of nasal mucosal toxicity. […] This mucosa morphology study was performed in vivo using healthy male SD rats. The rats were lightly anesthetized with diethyl ether and intranasally administered test solutions. Generally, 0.1 mL of the corresponding solution was equally administered to the two nostrils of one rat for 15 consecutive days. Finally, 2 days after stopping intranasal administration, the rats were sacrificed by an intraperitoneal injection of urethane and their hearts were perfused with saline. The nasal septum mucosae were then carefully peeled off, fixed with 3% w/v glutaraldehyde (diluted by PBS), and dehydrated with a gradient of ethanol. Finally, the fixed nasal mucosae were dried at the CO2 critical point, sprayed with ion sputtering, and observed under SEM.

nasal septum mucosae [3] = details: rat, in vivo
Method: as §1

[4] = cited from earlier work
[5] = Isoelectric point by capillary electrophoresis; format: physicochemical; details: authors' previous capillary electrophoresis (CE) analysis, no reference given
From the text: The essential point for the development of a liquid PTH(1-34) formulation was ensuring the stability of PTH(1-34). In this context, the aqueous environment was screened by utilizing MD simulations and HPLC analysis. In recent decades, MD simulations have been increasingly reported to investigate the conformational equilibria of polypeptides in solution (Colombo et al., [2002]). […] The HPLC analysis results further confirmed that PTH(1-34) had the best chemical stability in 0.008 M ABS. According to our previous capillary electrophoresis (CE) analysis, the isoelectric point (pI) of PTH(1-34) is approximately pH 7.77, indicating easy solubility and stability under acidic condition. The pH values of PBS and ABS were 7.4 and 4.0, respectively. Consequently, 0.008 M ABS had the best stability performance, most likely due to its acidic pH value and low ionic strength.

[6] = Chemical stability of PTH(1-34) in aqueous buffer solutions at 40 °C (HPLC); format: physicochemical
Method: HPLC measurements were performed with an HPLC instrument equipped with a photodiode array detector. A C-18 column (Cosmosil 250 × 4.6 mm, 5 µm, Japan) was used, and the sample solutions were applied via an autosampler (Merck-Hitachi, Darmstadt, Germany). Analysis of PTH(1-34) and its degradation products was performed under the following conditions. Mobile phase A was 0.1% (v/v) TFA in acetonitrile, and mobile phase B was 0.1% TFA (v/v) in water. […] A detection wavelength of 214 nm and column temperature of 25 °C were used.
Stability studies were carried out to clarify the influence of aqueous solvent on the stability of PTH(1-34) during storage and to determine the optimal aqueous environment. First, PBS and ABS were prepared as solvent solutions: 0.063 M PBS was prepared by dissolving 3.73 g sodium dihydrogen phosphate and 36.55 g disodium hydrogen phosphate in 1000 mL Milli-Q water; 0.032 M ABS was prepared as by dissolving 0.664 g glacial acetic acid and 1.64 g sodium acetate trihydrate together in 1000 mL Milli-Q water. Then, 0.016 M ABS, 0.008 M ABS, and 0.004 M ABS were prepared by diluting 0.032 M ABS with Milli-Q water. Following preparation, the pH values of the PBS and ABS solutions were measured using a pH meter (Mettler Toledo FiveEasy Plus).
To examine the stability of peptides in each aqueous medium, 3 mg/mL PTH(1-34) was separately incubated in 0.063 M PBS, 0.032 M ABS, 0.016 M ABS, 0.008 M ABS and 0.004 M ABS. Aliquots of PTH(1-34) were individually incubated at 40 °C, and the PTH(1-34) content was analyzed at 0, 6, 12, 24, 36, 48, 60 and 72 h postincubation. In addition, the impurities of PTH(1-34) in the 0.032 M ABS, 0.016 M ABS, 0.008 M ABS and 0.004 M ABS solutions were quantified by HPLC at the time points of 0, 24, 72 and 120 h postincubation at 40 °C.

In the case of `C[S+](C)[O-]` [DMSO, dimethyl sulfoxide], the HNEpC viability ([1]; 6 h, 20% DMSO positive control, vs culture medium) is reported as “statistically lower”.
In the case of `O=C(O)CC(O)(CC(=O)O)C(=O)O` [citric acid], the “cellular internalization of FITC-PTH (normalized to protein content)” value (HNEpCs; 20 μg/mL FITC-PTH with 0.005%, 0.010%, 0.015% enhancer, 30 min, fluorescence 485/518 nm, n = 8) is reported as “did not exhibit an obvious promotion effect”, the “duration of enhanced permeation rate of FITC-PTH relative to control” value (HNEpC layers) is reported as 60 min and the HNEpC viability ([1]; 6 h exposure, concentration of 0.1%) is reported as 73.03%. For the same compound, the HNEpC viability ([1]; 6 h exposure, concentrations of 0.01% and 0.05%, vs culture medium) was “comparable with that of the negative control”, the “time point of TEER reversal to the baseline level” value (HNEpC monolayers) was 40 min and the “observations in rats during intranasal administration” value (nasal septum mucosae [2]) was “bleeding of the nose was observed”.
With Triton X-100 the “cellular internalization of FITC-PTH (normalized to protein content)” value (HNEpCs; 20 μg/mL FITC-PTH with 0.1% Triton X-100, positive control) was “significantly promoted”.
In the case of “macrogol 15-hydroxystearate [Kolliphor® HS·15]”, the “observations in rats during intranasal administration” value (nasal septum mucosae [3]) is reported as “did not induce any observed discomfort”.
For nafarelin, the bioavailability ([4]; in vivo) is listed as “lower than 3%”.
In the case of parathyroid hormone (1-34) [PTH(1-34)], the “isoelectric point (pI)” value [5] is reported as about 7.77 pH, the “impurities of PTH(1-34)” value ([6]; 3 mg/mL in 0.008 M ABS compared with 0.032, 0.016 and 0.004 M ABS, 120 h, HPLC) is reported as “lowest amount of impurities” and the “PTH(1-34) content” value ([6]; chemical stability, 3 mg/mL in 0.032, 0.016, 0.008 and 0.004 M ABS (pH 4.0), up to 72 h, HPLC UV 214 nm) is reported as “no detectable decrease”. The “content of PTH(1-34)” value ([6]; chemical stability, 3 mg/mL in 0.063 M PBS (pH 7.4), after 72 h of incubation, HPLC UV 214 nm) was 76.34%.
In the case of salmon calcitonin, the bioavailability ([4]; intranasal peptide formulations devoid of permeation enhancers, ref Ozsoy et al., [2009]) is given as “lower than 3%”.
